Measured values taken from ChEMBL document CHEMBL1201861, “Genomics of Drug Sensitity in Cancer screening data, Wellcome Trust Sanger Institute”.

Key:
Assay in all cases: cells
Details in all cases: Homo sapiens
[1] = system: ECC4; format: functional, cell-based;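 further: growth inhibition of ECC4 cells, read out with a cell viability assay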
Description: SANGER: Inhibition of human ECC4 cell growth in a cell viability assay.

[2] = system: HuCCT-1; format: functional, cell-based, HuCCT1;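 further: growth inhibition of HuCCT-1 cells, read out by a cell viability assay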
Description: SANGER: Inhibition of human HuCCT1 cell growth in a cell viability assay.

[3] = system: EFO-21; format: functional, cell-based;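 further: growth inhibition of EFO-21 cells measured with a viability assay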
Description: SANGER: Inhibition of human EFO-21 cell growth in a cell viability assay.

[4] = system: U-698-M; format: functional, cell-based
Description: SANGER: Inhibition of human U-698-M cell growth in a cell viability assay.

[5] = system: HCC 2998; format: functional, cell-based;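 further: growth inhibition of human HCC2998 cells, measured with a cell viability read-out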
Description: SANGER: Inhibition of human HCC2998 cell growth in a cell viability assay.

[6] = system: NCI-H2342; format: functional, cell-based;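 further: growth inhibition of the cancer cell line, determined with a cell viability assay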
Description: SANGER: Inhibition of human NCI-H2342 cell growth in a cell viability assay.

[7] = system: WSU-NHL; format: functional, cell-based;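 further: growth inhibition of human WSU-NHL cells, read out with a cell viability assay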
Description: SANGER: Inhibition of human WSU-NHL cell growth in a cell viability assay.

[8] = system: THP-1; format: functional, cell-based;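 further: growth inhibition of THP-1 cells, read out via a cell viability assay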
Description: SANGER: Inhibition of human THP-1 cell growth in a cell viability assay.

[9] = system: FaDu; format: functional, cell-based;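 further: cell viability readout of growth inhibition in FaDu cells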
Description: SANGER: Inhibition of human FADU cell growth in a cell viability assay.

[10] = system: GMS-10; format: functional, cell-based;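 further: growth inhibition of GMS-10 cells, read out as cell viability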
Description: SANGER: Inhibition of human GMS-10 cell growth in a cell viability assay.

[11] = system: P12-Ichikawa; format: functional, cell-based
[12] = system: NCI-H727; format: functional, cell-based;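 further: growth inhibition of human NCI-H727 cells, read out with a cell viability assay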
Description: SANGER: Inhibition of human NCI-H727 cell growth in a cell viability assay.

[13] = system: M14; format: functional, cell-based;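 further: growth inhibition of M14 cells, read out with a cell viability assay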
Description: SANGER: Inhibition of human M14 cell growth in a cell viability assay.

[14] = system: BHY; format: functional, cell-based;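 further: cell growth inhibition read out by a viability assay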
Description: SANGER: Inhibition of human BHY cell growth in a cell viability assay.

[15] = system: SK-MEL-28; format: functional, cell-based;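 further: growth inhibition of human SK-MEL-28 cells, read out with a cell viability assay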
Description: SANGER: Inhibition of human SK-MEL-28 cell growth in a cell viability assay.

[16] = system: IGR-1; format: functional, cell-based;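 further: growth inhibition of human IGR-1 cells, read out with a cell viability assay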
Description: SANGER: Inhibition of human IGR-1 cell growth in a cell viability assay.

[17] = system: K052; format: functional, cell-based;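 further: Read-out from a cell viability assay, IC50 reflecting suppression of K052 cell growth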
Description: SANGER: Inhibition of human K052 cell growth in a cell viability assay.

[18] = system: CHP-126; format: functional, cell-based
Description: SANGER: Inhibition of human CHP-126 cell growth in a cell viability assay.

[19] = system: 786-0; format: functional, cell-based
Description: SANGER: Inhibition of human 786-0 cell growth in a cell viability assay.

[20] = system: VM-CUB-1; format: functional, cell-based;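 further: cell viability assay measuring growth inhibition of the human VM-CUB-1 cell line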
Description: SANGER: Inhibition of human VM-CUB-1 cell growth in a cell viability assay.

[21] = system: MCF7; format: functional, cell-based;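 further: growth inhibition of human MCF7 cells, read out with a cell viability assay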
Description: SANGER: Inhibition of human MCF7 cell growth in a cell viability assay.

[22] = system: WM-115; format: functional, cell-based
Description: SANGER: Inhibition of human WM-115 cell growth in a cell viability assay.

[23] = system: COR-L105; format: functional, cell-based;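 further: cell growth inhibition determined with a viability assay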
Description: SANGER: Inhibition of human COR-L105 cell growth in a cell viability assay.

[24] = system: Daoy; format: functional, cell-based;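 further: daoy cell growth inhibition, read out as cell viability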
Description: SANGER: Inhibition of human Daoy cell growth in a cell viability assay.

[25] = system: HCC1419; format: functional, cell-based;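 further: growth inhibition of human HCC1419 cells, read out as cell viability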
Description: SANGER: Inhibition of human HCC1419 cell growth in a cell viability assay.

[26] = system: NCI-H2171; format: functional, cell-based;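 further: growth inhibition of human NCI-H2171 cells, read out by a cell viability assay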
Description: SANGER: Inhibition of human NCI-H2171 cell growth in a cell viability assay.

[27] = system: CAKI-1; format: functional, cell-based;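 further: growth inhibition of CAKI-1 cells, measured by a cell viability assay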
Description: SANGER: Inhibition of human CAKI-1 cell growth in a cell viability assay.

[28] = system: SK-MEL-30; format: functional, cell-based;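 further: growth inhibition of SK-MEL-30 cells, determined with a cell viability assay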
Description: SANGER: Inhibition of human SK-MEL-30 cell growth in a cell viability assay.

[29] = system: SW13; format: functional, cell-based;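 further: IC50 is inhibition of SW13 cell growth, read out with a cell viability assay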
Description: SANGER: Inhibition of human SW13 cell growth in a cell viability assay.

[30] = system: SW1417; format: functional, cell-based;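 further: growth inhibition of human SW1417 cells, read out with a cell viability assay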
Description: SANGER: Inhibition of human SW1417 cell growth in a cell viability assay.

[31] = system: CAL-120; format: functional, cell-based;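 further: cell growth inhibition, read out as cell viability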
Description: SANGER: Inhibition of human CAL-120 cell growth in a cell viability assay.

[32] = system: Panc1005; format: functional, cell-based;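 further: growth inhibition of human PANC-10-05 cells, measured by a cell viability assay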
Description: SANGER: Inhibition of human PANC-10-05 cell growth in a cell viability assay.

[33] = system: MEL-HO; format: functional, cell-based
Description: SANGER: Inhibition of human MEL-HO cell growth in a cell viability assay.

[34] = system: KU-19-19; format: functional, cell-based
Description: SANGER: Inhibition of human KU-19-19 cell growth in a cell viability assay.

[35] = system: SKG-IIIa; format: functional, cell-based;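 further: cell growth inhibition, read out with a cell viability assay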
Description: SANGER: Inhibition of human SKG-IIIa cell growth in a cell viability assay.

[36] = system: PANC-03-27; format: functional, cell-based
Description: SANGER: Inhibition of human PANC-03-27 cell growth in a cell viability assay.

[37] = system: COLO-679; format: functional, cell-based
Description: SANGER: Inhibition of human COLO-679 cell growth in a cell viability assay.

[38] = system: NCI-H441; format: functional, cell-based;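 further: growth inhibition of NCI-H441 cells, read out with a cell viability assay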
Description: SANGER: Inhibition of human NCI-H441 cell growth in a cell viability assay.

[39] = system: UACC-812; format: functional, cell-based
Description: SANGER: Inhibition of human UACC-812 cell growth in a cell viability assay.

[40] = system: NALM-6; format: functional, cell-based;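 further: growth inhibition of NALM-6 cells, read out with a cell viability assay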
Description: SANGER: Inhibition of human NALM-6 cell growth in a cell viability assay.

[41] = system: COLO-741; format: functional, cell-based
Description: SANGER: Inhibition of human COLO-741 cell growth in a cell viability assay.

[42] = system: HCC1937; format: functional, cell-based;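 further: growth inhibition measured with a cell viability read-out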
Description: SANGER: Inhibition of human HCC1937 cell growth in a cell viability assay.

[43] = system: CHL-1; format: functional, cell-based;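 further: cell growth inhibition, read out with a cell viability assay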
Description: SANGER: Inhibition of human CHL-1 cell growth in a cell viability assay.

[44] = system: KYSE-140; format: functional, cell-based;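 further: cell viability assay measuring growth inhibition in human KYSE-140 cells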
Description: SANGER: Inhibition of human KYSE-140 cell growth in a cell viability assay.

[45] = system: PC-3; format: functional, cell-based;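 further: cell viability assay measuring growth inhibition of PC-3 cells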
Description: SANGER: Inhibition of human PC-3 cell growth in a cell viability assay.

[46] = system: CAPAN-1; format: functional, cell-based;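 further: growth suppression of CAPAN-1 cells, read out by a cell viability assay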
Description: SANGER: Inhibition of human CAPAN-1 cell growth in a cell viability assay.

[47] = system: T84; format: functional, cell-based;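 further: growth inhibition measured with a cell viability readout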
Description: SANGER: Inhibition of human T84 cell growth in a cell viability assay.

[48] = system: NCI-H2196; format: functional, cell-based;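 further: cell viability assay used as the readout of growth inhibition in NCI-H2196 cells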
Description: SANGER: Inhibition of human NCI-H2196 cell growth in a cell viability assay.

[49] = system: Huh-7; format: functional, cell-based;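 further: HuH-7 cell growth inhibition, read out with a cell viability assay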
Description: SANGER: Inhibition of human HuH-7 cell growth in a cell viability assay.

[50] = system: SIMA; format: functional, cell-based;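 further: growth inhibition of SIMA cells, measured with a cell viability readout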
Description: SANGER: Inhibition of human SIMA cell growth in a cell viability assay.

[51] = system: EB2; format: functional, cell-based;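 further: growth inhibition of EB2 cells, read out with a cell viability assay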
Description: SANGER: Inhibition of human EB2 cell growth in a cell viability assay.

[52] = system: LK-2; format: functional, cell-based;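 further: growth inhibition of LK-2 cells, read out with a viability assay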
Description: SANGER: Inhibition of human LK-2 cell growth in a cell viability assay.

[53] = system: SCLC-21H; format: functional, cell-based;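 further: growth inhibition of cultured human SCLC-21H cells, read out with a cell viability assay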
Description: SANGER: Inhibition of human SCLC-21H cell growth in a cell viability assay.

[54] = system: DBTRG-05MG; format: functional, cell-based;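 further: cell viability assay measuring growth inhibition of human DBTRG-05MG cells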
Description: SANGER: Inhibition of human DBTRG-05MG cell growth in a cell viability assay.

[55] = system: ARH-77; format: functional, cell-based;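 further: growth inhibition of ARH-77 cells, read out by a cell viability assay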
Description: SANGER: Inhibition of human ARH-77 cell growth in a cell viability assay.

[56] = system: RCM-1; format: functional, cell-based;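 further: growth inhibition of the RCM-1 line, determined with a cell viability readout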
Description: SANGER: Inhibition of human RCM-1 cell growth in a cell viability assay.

[57] = system: BCPAP; format: functional, cell-based;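 further: growth inhibition of BCPAP cells, read out in a cell viability assay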
Description: SANGER: Inhibition of human BCPAP cell growth in a cell viability assay.

[58] = system: ACHN; format: functional, cell-based;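 further: cell viability read-out used to gauge how strongly growth of human ACHN cells is suppressed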
Description: SANGER: Inhibition of human ACHN cell growth in a cell viability assay.

[59] = system: NCI-H187; format: functional, cell-based;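 further: growth inhibition of NCI-H187 cells, read out as cell viability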
Description: SANGER: Inhibition of human NCI-H187 cell growth in a cell viability assay.

[60] = system: HuP-T4; format: functional, cell-based;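 further: cell viability assay measuring how much HuP-T4 cell growth is inhibited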
Description: SANGER: Inhibition of human HuP-T4 cell growth in a cell viability assay.

[61] = system: A-427; format: functional, cell-based;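 further: growth inhibition of human A-427 cells, read out by a cell viability assay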
Description: SANGER: Inhibition of human A427 cell growth in a cell viability assay.

[62] = system: OVCAR-5; format: functional, cell-based
Description: SANGER: Inhibition of human OVCAR-5 cell growth in a cell viability assay.

[63] = system: NCI-H2170; format: functional, cell-based
Description: SANGER: Inhibition of human NCI-H2170 cell growth in a cell viability assay.

[64] = system: BPH-1; format: functional, cell-based
Description: SANGER: Inhibition of human BPH-1 cell growth in a cell viability assay.

[65] = system: NB7; format: functional, cell-based
Description: SANGER: Inhibition of human NB7 cell growth in a cell viability assay.

N#C/C(=C1/Nc2ccccc2S1)c1ccnc(NCCc2cccnc2)n1
IC50 [1]: > 8 µM
IC50 [2]: 7.65 µM
IC50 [3]: > 8 µM
IC50 [4]: 2.98 µM
IC50 [5]: 3.17 µM
IC50 [6]: 4.52 µM
IC50 [7]: > 8 µM
IC50 [8]: 5.33 µM
IC50 [9]: > 8 µM
IC50 [10]: > 8 µM
IC50 [11]: > 8 µM
IC50 [12]: 0.893 µM
IC50 [13]: > 8 µM
IC50 [14]: > 8 µM
IC50 [15]: > 8 µM
IC50 [16]: 4.68 µM
IC50 [17]: > 8 µM
IC50 [18]: > 8 µM
IC50 [19]: 3.08 µM
IC50 [20]: > 8 µM
IC50 [21]: 1.5 µM
IC50 [22]: > 8 µM
IC50 [23]: 1.77 µM
IC50 [24]: > 8 µM
IC50 [25]: > 8 µM
IC50 [26]: > 8 µM
IC50 [27]: 6.48 µM
IC50 [28]: > 8 µM
IC50 [29]: > 8 µM
IC50 [30]: > 8 µM
IC50 [31]: > 8 µM
IC50 [32]: > 8 µM
IC50 [33]: 5.46 µM
IC50 [34]: > 8 µM
IC50 [35]: > 8 µM
IC50 [36]: 2.9 µM
IC50 [37]: > 8 µM
IC50 [38]: 5.48 µM
IC50 [39]: > 8 µM
IC50 [40]: 4.49 µM
IC50 [41]: > 8 µM
IC50 [42]: 3.25 µM
IC50 [43]: 6.1 µM
IC50 [44]: 1.41 µM
IC50 [45]: > 8 µM
IC50 [46]: > 8 µM
IC50 [47]: 3.86 µM
IC50 [48]: > 8 µM
IC50 [49]: > 8 µM
IC50 [50]: > 8 µM
IC50 [51]: > 8 µM
IC50 [52]: 6.53 µM
IC50 [53]: > 8 µM
IC50 [54]: > 8 µM
IC50 [55]: > 8 µM
IC50 [56]: > 8 µM
IC50 [57]: 4.45 µM
IC50 [58]: 2.35 µM
IC50 [59]: > 8 µM
IC50 [60]: 4.44 µM
IC50 [61]: > 8 µM
IC50 [62]: > 8 µM
IC50 [63]: > 8 µM
IC50 [64]: > 8 µM

Cc1ccc(NC(=O)c2cccc(C(C)(C)C#N)c2)cc1Nc1ccc2ncn(C)c(=O)c2c1
IC50 [1]: > 4 µM
IC50 [65]: > 4 µM
IC50 [4]: > 4 µM
IC50 [5]: 0.222 µM
IC50 [7]: > 4 µM
IC50 [8]: > 4 µM
IC50 [18]: > 4 µM
IC50 [26]: > 4 µM
IC50 [39]: > 4 µM
IC50 [40]: > 4 µM
IC50 [48]: > 4 µM
IC50 [50]: > 4 µM
IC50 [51]: > 4 µM
IC50 [53]: > 4 µM
IC50 [55]: > 4 µM
IC50 [59]: > 4 µM

C/C(O)=C(\C#N)C(=O)Nc1cc(Br)ccc1Br
IC50 [1]: > 16 µM
IC50 [2]: > 16 µM
IC50 [3]: > 16 µM
IC50 [4]: > 16 µM
IC50 [5]: > 16 µM
IC50 [6]: > 16 µM
IC50 [7]: > 16 µM
IC50 [8]: > 16 µM
IC50 [9]: > 16 µM
IC50 [10]: > 16 µM
IC50 [11]: > 16 µM
IC50 [12]: > 16 µM
IC50 [13]: > 16 µM
IC50 [14]: > 16 µM
IC50 [15]: > 16 µM
IC50 [16]: > 16 µM
IC50 [17]: > 16 µM
IC50 [18]: > 16 µM
IC50 [19]: > 16 µM
IC50 [20]: > 16 µM
IC50 [21]: > 16 µM
IC50 [22]: > 16 µM
IC50 [23]: > 16 µM
IC50 [24]: > 16 µM
IC50 [25]: > 16 µM
IC50 [26]: > 16 µM
IC50 [27]: > 16 µM
IC50 [28]: > 16 µM
IC50 [29]: > 16 µM
IC50 [30]: > 16 µM
IC50 [31]: > 16 µM
IC50 [32]: > 16 µM
IC50 [33]: > 16 µM
IC50 [34]: > 16 µM
IC50 [35]: > 16 µM
IC50 [36]: > 16 µM
IC50 [37]: > 16 µM
IC50 [38]: > 16 µM
IC50 [39]: > 16 µM
IC50 [40]: > 16 µM
IC50 [41]: > 16 µM
IC50 [42]: > 16 µM
IC50 [43]: > 16 µM
IC50 [44]: > 16 µM
IC50 [45]: > 16 µM
IC50 [46]: > 16 µM
IC50 [47]: > 16 µM
IC50 [48]: > 16 µM
IC50 [49]: > 16 µM
IC50 [50]: > 16 µM
IC50 [51]: > 16 µM
IC50 [52]: > 16 µM
IC50 [53]: > 16 µM
IC50 [54]: > 16 µM
IC50 [55]: > 16 µM
IC50 [56]: > 16 µM
IC50 [57]: > 16 µM
IC50 [58]: > 16 µM
IC50 [59]: > 16 µM
IC50 [60]: > 16 µM
IC50 [61]: > 16 µM
IC50 [62]: > 16 µM
IC50 [63]: > 16 µM
IC50 [64]: > 16 µM

CC(O)(CS(=O)(=O)c1ccc(F)cc1)C(=O)Nc1ccc(C#N)c(C(F)(F)F)c1 (stereo not drawn) [BICALUTAMIDE]
IC50 [1]: > 1.02 µM
IC50 [2]: > 1.02 µM
IC50 [3]: > 1.02 µM
IC50 [4]: > 1.02 µM
IC50 [5]: > 1.02 µM
IC50 [6]: > 1.02 µM
IC50 [7]: > 1.02 µM
IC50 [8]: > 1.02 µM
IC50 [9]: > 1.02 µM
IC50 [10]: > 1.02 µM
IC50 [11]: > 1.02 µM
IC50 [12]: > 1.02 µM
IC50 [13]: > 1.02 µM
IC50 [14]: > 1.02 µM
IC50 [15]: > 1.02 µM
IC50 [16]: > 1.02 µM
IC50 [17]: > 1.02 µM
IC50 [18]: > 1.02 µM
IC50 [19]: > 1.02 µM
IC50 [20]: > 1.02 µM
IC50 [21]: > 1.02 µM
IC50 [22]: > 1.02 µM
IC50 [23]: > 1.02 µM
IC50 [24]: > 1.02 µM
IC50 [25]: > 1.02 µM
IC50 [26]: > 1.02 µM
IC50 [27]: > 1.02 µM
IC50 [28]: > 1.02 µM
IC50 [29]: > 1.02 µM
IC50 [30]: > 1.02 µM
IC50 [31]: > 1.02 µM
IC50 [32]: > 1.02 µM
IC50 [33]: > 1.02 µM
IC50 [34]: > 1.02 µM
IC50 [35]: > 1.02 µM
IC50 [36]: > 1.02 µM
IC50 [37]: > 1.02 µM
IC50 [38]: > 1.02 µM
IC50 [39]: > 1.02 µM
IC50 [40]: > 1.02 µM
IC50 [41]: > 1.02 µM
IC50 [42]: > 1.02 µM
IC50 [43]: > 1.02 µM
IC50 [44]: > 1.02 µM
IC50 [45]: > 1.02 µM
IC50 [46]: > 1.02 µM
IC50 [47]: > 1.02 µM
IC50 [48]: > 1.02 µM
IC50 [49]: > 1.02 µM
IC50 [50]: > 1.02 µM
IC50 [51]: > 1.02 µM
IC50 [52]: > 1.02 µM
IC50 [53]: > 1.02 µM
IC50 [54]: > 1.02 µM
IC50 [55]: > 1.02 µM
IC50 [56]: > 1.02 µM
IC50 [57]: > 1.02 µM
IC50 [58]: > 1.02 µM
IC50 [59]: > 1.02 µM
IC50 [60]: > 1.02 µM
IC50 [61]: > 1.02 µM
IC50 [62]: > 1.02 µM
IC50 [63]: > 1.02 µM
IC50 [64]: > 1.02 µM
